Structures can show the parent of a compound that is named as a salt. Where two headings read alike, the source gives them in different places.
Assays:
[1] = tested on: Ornithine decarboxylase (ODC); test: ODC activity in treated L1210 cells; type: cell-based, murine
Procedure: (§1) Ornithine decarboxylase (ODC) and Adenosylmethionine decarboxylase (AdoMet DC) activities were determined according to the procedures of Seely, J. E., Pegg, A. E., “Ornithine Decarboxylase (Mouse Kidney),” Methods Enzymol. 94: 158-161 (1983) and Pegg, A. E., Pösö, H., “S-Adenosylmethionine Decarboxylase (Rat Liver),” Methods Enzymol. 94: 234-239 (1983), respectively, on the basis of quantitation of ^14CO2 released from [^14C]carboxyl-labeled L-ornithine or S-adenosyl-L-methionine. Included in each assay were untreated L210 cells as negative controls as well as cells treated with DEHSPM, a drug having a known reproducible effect on each enzyme, as positive controls.

[2] = tested on: Spermidine/spermine N^1-acetyl transferase (SSAT); test: SSAT activity in treated L1210 cells; type: cell-based, murine
From the text: Spermidine/spermine N^1-acetyl transferase (SSAT) activity was based on quantitation of [^14C]-N^1-acetylspermidine formed by acetylation of SPD with [^14C]-acetyl coenzyme A according to the method of Libby, P. R., Bergeron, R. J., Porter, C. W., “Structure-Function Correlations of Polyamine Analog-Induced Increases in Spermidine/Spermine Acetyltransferase Activity,” Biochem. Pharmacol. 38: 1435-1442 (1989). Cells treated with DENSPM were positive controls.

[3] = tested on: polyamine pools in L1210 cells; test: Effect on native polyamine pools in L1210 cells (HPLC); type: cell-based, murine; conditions: for activity at 0.2 µM: L1210
Procedure: At the end of the treatment period, cell suspensions were sampled, washed three times in ice-cold, incomplete medium, and pelleted for extraction using 0.6 N perchloric acid, then freeze-fractured in liquid nitrogen/hot water three times. Each supernatant was frozen at −20° C. until analysis of polyamine content by HPLC. […] The buffer consisted of potassium phosphate (10 mM) and EDTA (2 mM), pH 2.9.

L1210 leukemia cells [4] = test: Intracellular concentration / accumulation of analogue in L1210 cells (HPLC); conditions: for intracellular concentration over extracellular treatment concentration: 0.2 μM extracellular
Procedure: At the end of the treatment period, cell suspensions were sampled, washed three times in ice-cold, incomplete medium, and pelleted for extraction using 0.6 N perchloric acid, then freeze-fractured in liquid nitrogen/hot water three times.
During logarithmic growth, cells were treated with the compounds. At the end of the treatment period, cell suspensions were sampled, washed three times in ice-cold, incomplete medium, and pelleted for extraction using 0.6 N perchloric acid, then freeze-fractured in liquid nitrogen/hot water three times. Each supernatant was frozen at −20° C. until analysis of analogue content by HPLC,
Analytical separation was performed on a Waters Symmetry C18 column (250 mm×4.6 mm, 5 μm) with a guard column using a Rainin Instrument Company HPLC system. The buffer employed was sodium octanesulfonate (2.5 mM) in potassium phosphate (25 mM), pH 3.0. Mobile phase A consisted of 5% CH3CN, 95% buffer; mobile phase B consisted of 60% CH3CN, 40% buffer. The solvent gradient program employed a linear gradient that increased from 20% mobile phase B to 40% mobile phase B over 40 min and a 5-min ramp to 100% B over 5 min. Post-column derivatization used a boric acid buffer system (H3BO3, 3.1% w/v; KOH, 2.6% w/v; 2-mercaptoethanol, 0.6% v/v) that contained o-phthaldialdehyde (10 mL of a 4% w/v solution in CH3OH per L of buffer). The flow rate was 0.4 mL/min, isocratic; UV detection (λex, 340 nm; λem, 445 nm) was utilized.
Analytical separation was performed on a reversed-phase Supelco Discovery RP Amide C16 column (150×4.6 mm, 5 μm) on the system described above, and UV detection was at 300 nm. The mobile phases were pumped at a flow rate of 1.5 mL/min. The buffer and mobile phases A and B were the same as described above. The solvent gradient program employed an initial 10-min isocratic portion with 5% mobile phase B (95% A), followed by a linear gradient increase to 80% mobile phase B at 35 min, a 5-min ramp to 100% B held for 10 min, and ramping back to 5% mobile phase B for 8 min (58-65 min total).
In both cases, the concentrations were calculated from the peak area fitted to calibration curves by nonweighted least squares linear regression with Rainin Dynamax HPLC Method Manager software (Rainin Instrument Co.).

[5] = tested on: Adenosylmethionine decarboxylase (AdoMet DC); test: AdoMetDC activity in treated L1210 cells; type: cell-based, murine
Procedure: as §1

polyamine transporter [6] = test: Competition with [3H]SPD for uptake into L1210 cells (polyamine transporter, Ki); type: cell-based, murine; conditions: for Ki: L1210 cell suspensions, read-out: Ki, competition with [3H]SPD for the polyamine transport apparatus
From the text: The compounds of interest were studied for their ability to compete with [^3H]SPD for uptake into L1210 leukemia cell suspensions in vitro as described in Bergeron, R. J., Hawthorne, T. R., Vinson, J. R. T., Beck, D. L., Jr., Ingeno, M. J., “Role of the Methylene Backbone in the Antiproliferative Activity of Polyamine Analogues on L1210 Cells,” Cancer Res. 49: 2959-2964 (1989); Bergeron, R. J., McManis, J. S., Liu, C. Z., Feng, Y., Weimar, W. R., Luchetta, G. R., Wu, Q., Ortiz-Ocasio, J., Vinson, J. R. T., Kramer, D., Porter, C., “Antiproliferative Properties of Polyamine Analogues: A Structure-Activity Study,” J. Med. Chem. 37: 3464-3476 (1994); and Bergeron, R. J., Weimar, W. R., Wu, Q., Feng, Y., McManis, J. S., “Polyamine Analogue Regulation of NMDA MK-801 Binding: A Structure-Activity Study,” J. Med. Chem. 39: 5257-5266 (1996). Briefly, cell suspensions were incubated in 1 mL of culture medium containing radiolabeled SPD alone or radiolabeled SPD in the presence of graduated concentrations of a chelator or derivative. At the end of the incubation period, the tubes were centrifuged; the pellet was washed, digested, and neutralized prior to scintillation counting. Lineweaver-Burk plots indicated a simple competitive inhibition with respect to SPD.
The molecules of interest were studied for their ability to compete with [^3H]SPD for uptake into L1210 leukemia cell suspensions in vitro. Briefly, cell suspensions were incubated in 1 mL of culture medium containing radiolabeled SPD alone or radiolabeled SPD in the presence of graduated concentrations of chelator or conjugate. At the end of the incubation period, the tubes were centrifuged; the pellet was washed, digested, and neutralized prior to scintillation counting. Lineweaver-Burk plots indicated simple competitive inhibition with respect to SPD.

[7] = tested on: Murine L1210 leukemia cells; test: L1210 cell growth inhibition (IC50); type: cell-based
Procedure: Murine L1210 leukemia cells were maintained in logarithmic growth as a suspension culture in RPMI-1640 medium (Gibco, Grand Island, N.Y.) containing 10% fetal bovine serum (Gibco), 2% HEPES-MOPS buffer, 1 mM L-glutamine (Gibco), and 1 mM aminoguanidine at 37° C. in a water-jacketed 5% CO2 incubator.
Cells were grown in 25 cm^2 tissue culture flasks in a total volume of 10 mL. Cultures were treated during logarithmic growth (0.5−1.0×10^5 cells/mL) with the compounds of interest, reseeded, and incubated as described in Bergeron, R. J., Müller, R., Bussenius, J., McManis, J. S., Merriman, R. L., Smith, R. E., Yao, H., Weimar, W. R., “Synthesis and Evaluation of Hydroxylated Polyamine Analogues as Antiproliferatives,” J. Med. Chem 43: 224-235 (2000). Cell counting and calculation of percent of control growth were also carried out as described in Bergeron, et al. The IC50 is defined as the concentration of compound necessary to reduce cell growth to 50% of control growth after defined intervals of exposure.

[8] = tested on: chelator-promoted iron excretion; test: Iron clearance in the bile duct-cannulated rat; type: in vivo; conditions: for iron-clearing efficiency: bile duct-cannulated rat
Procedure: In this model, chelator-promoted iron excretion is measured in both the bile and the urine. Furthermore, because the method allows for collection of multiple bile samples, the kinetics of iron excretion can be determined. In each instance, the drugs were given subcutaneously. L1 and its SPM conjugate (4 and 5) were administered at a dose of 450 μmol/kg and (S)-4′-(HO)-DADFT (8) and its NSPD conjugates (9 and 10) were administered at a dose of 300 μmol/kg, i.e., all at equivalent iron-binding capacity.

L1210 leukemia cells [9] = conditions: extracellular 30 μM; cited from earlier work
[10] = tested on: Murine L1210 leukemia cells; conditions: cited from earlier work
polyamine transporter [11] = conditions: L1210 cell suspensions; read-out: Ki, competition for the polyamine transport apparatus (historical numbers); cited from earlier work
[12] = L1210 cells, treatment concentration 100 μM
[13] = Mus musculus, 48 h exposure, read-out: IC50, 48 h
[14] = Mus musculus, 96 h exposure, read-out: IC50, 96 h
[15] = rat, 450 μmol/kg subcutaneously
[16] = rat, 300 μmol/kg subcutaneously

Cc1c(O)c(=O)ccn1CCCNCCCCNCCCN (as salt: hydrochloride) [Compound 3, 1-(12-Amino-4,9-diazadodecyl)-2-methyl-3-hydroxy-4(1H)-pyridinone Tetrahydrochloride]
melting point: 216 to 218 °C

CC(=O)NCCCNCCCCNCCCN [AcSPM, N^1-Acetylspermine]
ODC activity, % of control [1]: 25±11 % of control
SSAT activity, % of control [2]: 180±11 % of control
putrescine, percent of control [3, 12]: substantial effect
spermidine, percent of control [3, 12]: slight decrease
spermine, percent of control [3, 12]: increased
intracellular concentration (analogue accumulation) (L1210 leukemia cells [4]; treatment concentration 100 μM): 1.62 mM
AdoMetDC activity, % of control [5]: 86±11 % of control
Ki (polyamine transporter [6]): 10 µM
IC50 [7, 13]: > 100 µM
IC50 [7, 14]: > 100 µM

Cc1c(O)c(=O)ccn1CCCNCCCCNCCCN [Compound 3, 1-(12-Amino-4,9-diazadodecyl)-2-methyl-3-hydroxy-4(1H)-pyridinone Tetrahydrochloride]
ODC activity, % of control [1]: 20±4 % of control
SSAT activity, % of control [2]: 275±6 % of control
activity at 0.2 µM ([3]; Mus musculus, read-out: putrescine, percent of control): 33%
activity at 0.2 µM ([3]; Mus musculus, read-out: spermidine, percent of control): 64%
activity at 0.2 µM ([3]; Mus musculus, read-out: spermine, percent of control): 139%
intracellular concentration relative to that attained by parent ligand L1 (L1210 leukemia cells [4]): several hundred times higher
intracellular concentration over extracellular treatment concentration (L1210 leukemia cells [4]): more than 1900 fold
intracellular concentration over extracellular treatment concentration (L1210 leukemia cells [4]; listed as 1-(12-amino-4,9-diazadodecyl)-2-methyl-3-hydroxy-4-(1H)-pyridinone): 1900 fold
intracellular level (L1210 leukemia cells [4]; extracellular 0.2 μM): 390 µM
intracellular concentration (analogue accumulation) (L1210 leukemia cells [4]; treatment concentration 0.2 μM): 0.39 mM
AdoMetDC activity, % of control [5]: 77±11 % of control
IC50 [7, 13]: 0.2 µM
IC50 [7, 14]: 0.2 µM
iron-clearing efficiency ([8]; 450 μmol/kg subcutaneously): 1.8±0.9%
share of excreted iron in the bile [8, 15]: 53%
share of excreted iron in the urine [8, 15]: 47%

COC(=O)c1ccc(C(=O)NCCCNCCCCN)cc1 [Compound 6, N^1-terephthaloylspermidine methyl ester]
Ki (polyamine transporter [6]): 3.1 µM

NCCCCNCCCNC(=O)c1ccc(C(=O)O)cc1 [Compound 7, N^1-terephthaloylspermidine]
intracellular level (L1210 leukemia cells [4]; extracellular 100 μM): < 70 µM
Ki (polyamine transporter [6]): 27 µM
fold increase of Ki of the free acid over the corresponding ester (polyamine transporter [6]; L1210 cells): 9 fold

C[C@]1(C(=O)O)CSC(c2ccc(O)cc2O)=N1 [Compound 8, 2-(2,4-dihydroxyphenyl)-4-(S)-methylthiazoline-4-carboxylic acid]
intracellular level (L1210 leukemia cells [4]; extracellular 100 μM): ≤ 50 µM
IC50 [7, 13]: 19 µM
IC50 [7, 14]: 20 µM
iron-clearing efficiency ([8]; 300 μmol/kg subcutaneously): 1.1±0.6%

CCOC(=O)[C@@]1(C)CSC(c2ccc(OCCCCNCCCNCCCN)cc2O)=N1 [Compound 9]
intracellular level (L1210 leukemia cells [4]; extracellular 100 μM): 947 ± 110 µM
Ki (polyamine transporter [6]): 5.7 µM
IC50 [7, 13]: 1.5 µM
IC50 [7, 14]: 1.5 µM
iron-clearing efficiency ([8]; 300 μmol/kg subcutaneously): 13.6±3.3%
biliary ferrokinetics (in words) [8, 16]: protracted biliary iron clearance

C[C@]1(C(=O)O)CSC(c2ccc(OCCCCNCCCNCCCN)cc2O)=N1.Cl.Cl.Cl [Compound 10, (S)-4,5-dihydro-2-[2-hydroxy-4-(12-amino-5,9-diazadodecyloxy)phenyl]-4-methyl-4-thiazolecarboxylic acid trihydrochloride]
intracellular level (L1210 leukemia cells [4]; extracellular 100 μM): about 70 μM
Ki (polyamine transporter [6]): 73 µM
IC50 [7, 13]: 40 µM
IC50 [7, 14]: 40 µM
biliary ferrokinetics (in words) [8, 16]: protracted biliary iron clearance
drug species found in tissues of dosed animals ([8]; rat, subcutaneous): contained largely free acid

Cc1c(O)c(=O)ccn1C [Compound L1, 1,2-Dimethyl-3-hydroxypyridin-4-one]
ODC activity, % of control [1]: 114±5 % of control
SSAT activity, % of control [2]: 108±58 % of control
putrescine, percent of control ([3]; L1210 cells, treatment 50 μM): remained close to control levels
spermidine, percent of control ([3]; L1210 cells, treatment 50 μM): remained close to control levels
activity at 50 µM ([3]; Mus musculus, L1210 cells, treatment 50 μM, read-out: spermine, percent of control): 127%
intracellular level (L1210 leukemia cells [4]; extracellular 50 μM): 1 µM
AdoMetDC activity, % of control [5]: 120±4 % of control
IC50 [7, 13]: 46 µM
IC50 [7, 14]: 55 µM
iron-clearing efficiency ([8]; 450 μmol/kg subcutaneously): 2.2±0.9%
share of excreted iron in the bile [8, 15]: 74%
share of excreted iron in the urine [8, 15]: 26%

CCNCCCNCCCCNCCCNCC [DESPM]
IC50 ([7]; 48 h exposure, read-out: IC50, 48 h): 30 µM
IC50 ([7]; 96 h exposure, read-out: IC50, 96 h): 0.2 µM
intracellular level (previous studies) (L1210 leukemia cells [9]): 400 µM

CC(=O)N(O)CCCCCNC(=O)CCC(=O)N(O)CCCCCNC(=O)CCC(=O)N(O)CCCCCN [DFO]
IC50 [7, 13]: 7 µM
IC50 [7, 14]: 6 µM

FC(F)(F)CNCCCNCCCCNCCCNCC(F)(F)F [FDESPM]
intracellular level (L1210 leukemia cells [4]; extracellular 100 μM): < 20 µM
competition for / uptake by the polyamine transporter (in words) (polyamine transporter [6]; L1210 cells): poor Ki
IC50 ([7]; exposure time not given, read-out: IC50): > 100 µM

CCNCCCNCCCCNCCCN [MESPM, N^1-ethylspermine]
intracellular concentration (analogue accumulation) (L1210 leukemia cells [4]; treatment concentration 100 μM): 1.24 mM

CCCNCCCCNCCCN [MPSPD(N^8), N^8-propylspermidine]
SSAT activity, % of control [2]: 500 % of control
IC50 ([10]; 48 h exposure, read-out: IC50, 48 h (historical numbers)): > 100 µM
IC50 ([10]; 96 h exposure, read-out: IC50, 96 h (historical numbers)): 55 µM
putrescine, percent of control [3, 12]: lowered
spermidine, percent of control [3, 12]: lowered
activity at 100 µM ([3]; Mus musculus, L1210 cells, treatment concentration 100 μM, read-out: spermine, percent of control): 103%
intracellular concentration (analogue accumulation) (L1210 leukemia cells [4]; treatment concentration 100 μM): 3.52 mM
AdoMetDC activity, % of control [5]: 64 % of control
Ki (polyamine transporter [11]): 8.5 µM
